Key:
15-LOX = target: T1, 15-LOX (Homo sapiens, UniProt O15296); assay: 15-LOX inhibition assay (human recombinant enzyme kit); format: biochemical
T1 construct: purchased Cayman Chemical 10011263
T1 sequence (O15296 1-676): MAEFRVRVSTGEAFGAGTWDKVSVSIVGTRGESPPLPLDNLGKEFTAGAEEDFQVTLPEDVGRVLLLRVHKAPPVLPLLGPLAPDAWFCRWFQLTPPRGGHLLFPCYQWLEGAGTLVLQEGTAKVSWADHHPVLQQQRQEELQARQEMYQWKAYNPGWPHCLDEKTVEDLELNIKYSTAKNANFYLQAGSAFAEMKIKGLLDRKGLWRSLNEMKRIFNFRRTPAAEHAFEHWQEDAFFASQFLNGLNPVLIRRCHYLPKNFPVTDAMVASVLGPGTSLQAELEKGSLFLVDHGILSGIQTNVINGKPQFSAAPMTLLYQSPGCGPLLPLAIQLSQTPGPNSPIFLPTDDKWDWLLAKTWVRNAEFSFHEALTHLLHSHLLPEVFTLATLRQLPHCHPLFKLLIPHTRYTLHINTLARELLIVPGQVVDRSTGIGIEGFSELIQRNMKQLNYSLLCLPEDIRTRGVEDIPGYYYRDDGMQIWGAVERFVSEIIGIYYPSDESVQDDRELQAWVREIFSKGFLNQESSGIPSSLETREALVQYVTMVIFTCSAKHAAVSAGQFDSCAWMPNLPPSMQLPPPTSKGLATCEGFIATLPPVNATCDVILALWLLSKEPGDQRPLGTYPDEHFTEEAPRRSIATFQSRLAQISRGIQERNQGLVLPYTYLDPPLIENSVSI
Description: Stock solutions were freshly prepared before use, and buffer solution (0.1 M Tris-HCl, PH, 7.4) was used. 10 µL of each compound were prepared, dissolved in the least amount of DMSO and diluted with the stock solution to be in concentrations of (0.001, 0.1, 1, 5, 10 µM) in a final volume of 210 mL. […] Substrate concentration was ranged from 5 to 50 µM. Substrate concentrations (5, 10, 20, 30, 40, 50 µM) were monitored in triplicate for each sample [37]. Doxorubicin was used as a positive control.

5-LOX = target: T2, 5-LOX (Homo sapiens, UniProt P09917); assay: 5-LOX inhibition assay (human recombinant enzyme kit); format: biochemical
T2 construct: purchased Cayman Chemical 60,402
T2 sequence (P09917 1-674): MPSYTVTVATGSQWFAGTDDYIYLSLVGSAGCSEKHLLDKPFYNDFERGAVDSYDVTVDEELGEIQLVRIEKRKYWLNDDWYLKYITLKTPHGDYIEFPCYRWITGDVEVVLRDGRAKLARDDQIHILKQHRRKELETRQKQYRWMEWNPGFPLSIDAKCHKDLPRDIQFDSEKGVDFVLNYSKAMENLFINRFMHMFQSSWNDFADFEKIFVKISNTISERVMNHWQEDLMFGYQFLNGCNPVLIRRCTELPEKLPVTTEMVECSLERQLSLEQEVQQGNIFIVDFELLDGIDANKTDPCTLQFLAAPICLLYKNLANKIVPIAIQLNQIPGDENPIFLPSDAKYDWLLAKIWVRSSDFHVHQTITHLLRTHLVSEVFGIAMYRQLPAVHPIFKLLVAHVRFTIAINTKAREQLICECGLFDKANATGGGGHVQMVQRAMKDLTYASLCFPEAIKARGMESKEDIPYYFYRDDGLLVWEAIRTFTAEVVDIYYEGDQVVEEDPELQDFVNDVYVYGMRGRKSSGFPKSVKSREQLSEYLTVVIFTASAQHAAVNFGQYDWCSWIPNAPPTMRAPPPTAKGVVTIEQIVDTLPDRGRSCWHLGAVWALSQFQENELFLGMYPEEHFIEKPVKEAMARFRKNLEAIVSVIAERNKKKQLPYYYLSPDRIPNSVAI
Description: The ability of the isolated compounds 12, 13, and 19 to inhibit 5-LOX and 15-LOX enzymes (IC50 and Ki values, µM) was determined using human recombinant enzyme assay kits (catalog no 60,402 and 10011263, Cayman Chemical, Ann Arbor, MI, USA) following manufacturer’s specifications. Stock solutions were freshly prepared before use, and buffer solution (0.1 M Tris-HCl, PH, 7.4) was used. 10 µL of each compound were prepared, dissolved in the least amount of DMSO and diluted with the stock solution to be in concentrations of (0.001, 0.1, 1, 5, 10 µM) in a final volume of […]. The kinetic parameters for both 5-LOX and 15-LOX were determined by measuring the increase in absorbance at 238 nm in an Agilent 8453 diode array spectrophotometer (Agilent Technologies, Santa Clara, CA, USA). Substrate concentration was ranged from 5 to 50 µM. Substrate concentrations (5, 10, 20, 30, 40, 50 µM) were monitored in triplicate for each sample [37]. Doxorubicin was used as a positive control.

[1] = in vitro, human recombinant enzyme

Compound: CCCCC/C=C\C/C=C\C/C=C\C/C=C\CCCCOCC(O)CO[C@H]1O[C@H](CO)[C@@H](O)[C@H](O)[C@H]1O (stereo partly drawn) [compound 19, 1-O-arachidonyl-3-O-(α-D-glucopyranosyl) glycerol]
- Ki (15-LOX; in vitro inhibition constant): 4.2 ± 0.1 µM
- IC50 (15-LOX; [1]): 6.7 ± 0.3 µM
- Ki (5-LOX; in vitro inhibition constant): 1.4 ± 0.2 µM
- IC50 (5-LOX; [1]): 2.1 ± 0.4 µM

From publication PMC8069941, “Potential Anticancer Lipoxygenase Inhibitors from the Red Sea-Derived Brown Algae Sargassum cinereum: An In-Silico-Supported In-Vitro Study” (Antibiotics, 2021)
